# Assay results from article PMC11381307 (Frontiers in Pharmacology, 2024).
# pIC50: −log10 of the molar value.
# Experiments:
# UGT1A1/1A3 = settings: 50 μM, 96 h treatment; 100 μM substrate, 30 min
# Procedure: (§1) Cryopreserved human hepatocytes were recovered in a pre-warmed incubation medium, diluted to a viable cell density (∼0.7 × 10^6 cells/mL) using a plating medium, followed by the addition of 100 μL hepatocytes into each well of a collagen I-coated 96-well plate. The cell monolayer was formed after an overnight incubation period at 37°C under 5%CO2. The plating medium was then replaced with an incubation medium for further culture. On the second day, an incubation medium containing different concentrations of either compound, the inducer omeprazole (final concentration of 50 μM), or vehicle (0.1% [v/v] dimethyl sulfoxide [DMSO]). […] At the end of the incubation period, the medium was replaced with a substrate for UGT and MPA. […] Finally, the supernatant was collected after centrifugation at 4,000 rpm for 10 min and analyzed for glucuronide formation using liquid chromatography-mass spectrometry (LC-MS).
# (§2) The formation of glucuronide metabolites, as determined with LC-MS, was used to calculate the formation rate linked to enzyme activity according to Equation 1. […]
# (§3) The percentage of enzyme activity relative to the NC (%) was determined using Equation 2. […]
# (§4) The formation of 4-trifluoromethyl-7-hydroxycoumarin glucuronide and estradiol-3-glucuronide was detected to evaluate the induction of UGT enzyme activity compared with that in the NC group.
# UGT1A9/2B7 = settings: 50 μM, 96 h treatment; 100 μM substrate, 30 min
# Procedure: as §1, §2, §3, §4
# UGT = assay: Human hepatocyte UGT induction study, conversion of MPA to MPAG; type: cell-based; settings: 50 μM, 96 h treatment
# Procedure: Cryopreserved human hepatocytes were recovered in a pre-warmed incubation medium, diluted to a viable cell density (∼0.7 × 10^6 cells/mL) using a plating medium, followed by the addition of 100 μL hepatocytes into each well of a collagen I-coated 96-well plate. The cell monolayer was formed after an overnight incubation period at 37°C under 5%CO2. The plating medium was then replaced with an incubation medium for further culture. On the second day, an incubation medium containing different concentrations of either compound, the inducer omeprazole (final concentration of 50 μM), or vehicle (0.1% [v/v] dimethyl sulfoxide [DMSO]). […] At the end of the incubation period, the medium was replaced with a substrate for UGT and MPA. Following a further incubation of 15 or 30 min at 37°C under 5% CO2, 100 μL of the reaction medium was transferred to 400 μL of ice-cold methanol containing internal standard (IS) to terminate the reaction. Finally, the supernatant was collected after centrifugation at 4,000 rpm for 10 min and analyzed for glucuronide formation using liquid chromatography-mass spectrometry (LC-MS).
# The formation of glucuronide metabolites, as determined with LC-MS, was used to calculate the formation rate linked to enzyme activity according to Equation 1. Formation rate pmol/10^6 cells/min=amount of glucuronide metabolites formation pmol/number of cells 10^6 cells×incubation time min (1)
# The percentage of enzyme activity relative to the NC (%) was determined using Equation 2. Relative enzyme activity % of NC=formation rate in the compound−treated group/that in NC×100 (2)
# human OAT1 = target: T1, human OAT1 (Homo sapiens, UniProt Q4U2R8)
# T1 sequence (Q4U2R8 1-563): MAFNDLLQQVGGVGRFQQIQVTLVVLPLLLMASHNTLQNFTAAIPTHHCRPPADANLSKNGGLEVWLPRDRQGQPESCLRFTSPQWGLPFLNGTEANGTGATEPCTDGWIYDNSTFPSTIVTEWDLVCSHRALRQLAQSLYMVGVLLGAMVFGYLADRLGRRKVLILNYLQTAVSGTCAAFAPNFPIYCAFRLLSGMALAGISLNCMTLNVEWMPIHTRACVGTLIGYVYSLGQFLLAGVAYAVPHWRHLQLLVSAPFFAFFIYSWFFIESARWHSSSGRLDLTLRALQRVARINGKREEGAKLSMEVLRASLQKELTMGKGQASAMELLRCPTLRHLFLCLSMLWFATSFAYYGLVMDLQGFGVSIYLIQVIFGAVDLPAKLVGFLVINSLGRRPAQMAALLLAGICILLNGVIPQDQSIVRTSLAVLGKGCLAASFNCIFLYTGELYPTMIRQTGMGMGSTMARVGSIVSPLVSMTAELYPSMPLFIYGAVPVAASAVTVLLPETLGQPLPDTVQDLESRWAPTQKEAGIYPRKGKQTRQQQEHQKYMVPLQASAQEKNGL
# OAT3 = target: T2, OAT3 (Homo sapiens, UniProt Q8TCC7); assay: Transporter substrate study using HEK293-OAT3 cells; settings: for uptake ratio (UR) mediated by OAT3: 10 μM
# T2 sequence (Q8TCC7 1-542): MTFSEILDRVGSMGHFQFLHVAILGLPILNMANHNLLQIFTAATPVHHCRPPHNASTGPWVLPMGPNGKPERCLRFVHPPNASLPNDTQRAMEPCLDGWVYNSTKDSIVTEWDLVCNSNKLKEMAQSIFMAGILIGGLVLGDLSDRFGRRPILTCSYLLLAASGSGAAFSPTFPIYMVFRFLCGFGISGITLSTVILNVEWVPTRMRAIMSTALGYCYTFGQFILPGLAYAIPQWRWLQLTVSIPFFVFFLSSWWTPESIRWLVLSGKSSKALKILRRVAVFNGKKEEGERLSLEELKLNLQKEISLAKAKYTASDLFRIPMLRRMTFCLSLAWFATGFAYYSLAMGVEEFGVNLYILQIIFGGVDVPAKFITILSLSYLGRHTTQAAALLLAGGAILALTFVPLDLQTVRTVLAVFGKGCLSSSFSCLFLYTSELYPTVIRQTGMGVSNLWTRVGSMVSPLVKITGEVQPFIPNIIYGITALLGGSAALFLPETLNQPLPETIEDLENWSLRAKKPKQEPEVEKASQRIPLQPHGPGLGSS
# MRP2 = MRP2 (Homo sapiens, UniProt Q92887); assay: biochemical
# Procedure: The substrate study was performed at 37°C with a water bath using a mixture comprising of 10 μL of vesicle membranes (5 mg/mL) and 10 μL of Buffer A2 (replaced with 5 μL Reagent G and 5 μL inhibitors for the inhibitor groups). The mixture was pre-incubated at 37°C with a water bath for 5 min. Meanwhile, 10 μL of dosing solution of the compounds or probe substrates and 10 μL of Reagent C2 (ATP) or D2 (AMP, as the non-ATP dependent control) were mixed and pre-incubated at 37°C for 5 min. Following pre-incubation, the two mixtures were mixed and incubated for an additional 5 min.
# After incubation, the reactions were stopped with ice-cold Buffer B, filtered through a 96-well filter plate to separate vesicle-associated ligands from the matrix, and washed five times with ice-cold Buffer B. The vesicles on the filer plate were dissolved using 50 μL of 80% methanol (v/v), and the filtrate was collected by centrifugation at 2000 rpm for 2 min. The dissolution and centrifugation procedures were repeated. […] The supernatant was collected to quantify the amount of compound or substrate using LC-MS. […]
# For the substrate assay, the amount of compounds in the vesicle was determined with LC-MS to calculate the transport activity, UR, and inhibition rate using Equations 11–13, which were used to determine whether the compounds were substrates of the transporter. […]
# [1] = criterion UR ≥2.0 and inhibition ≥50%
# MRP2, sequence (Q92887 whole entry): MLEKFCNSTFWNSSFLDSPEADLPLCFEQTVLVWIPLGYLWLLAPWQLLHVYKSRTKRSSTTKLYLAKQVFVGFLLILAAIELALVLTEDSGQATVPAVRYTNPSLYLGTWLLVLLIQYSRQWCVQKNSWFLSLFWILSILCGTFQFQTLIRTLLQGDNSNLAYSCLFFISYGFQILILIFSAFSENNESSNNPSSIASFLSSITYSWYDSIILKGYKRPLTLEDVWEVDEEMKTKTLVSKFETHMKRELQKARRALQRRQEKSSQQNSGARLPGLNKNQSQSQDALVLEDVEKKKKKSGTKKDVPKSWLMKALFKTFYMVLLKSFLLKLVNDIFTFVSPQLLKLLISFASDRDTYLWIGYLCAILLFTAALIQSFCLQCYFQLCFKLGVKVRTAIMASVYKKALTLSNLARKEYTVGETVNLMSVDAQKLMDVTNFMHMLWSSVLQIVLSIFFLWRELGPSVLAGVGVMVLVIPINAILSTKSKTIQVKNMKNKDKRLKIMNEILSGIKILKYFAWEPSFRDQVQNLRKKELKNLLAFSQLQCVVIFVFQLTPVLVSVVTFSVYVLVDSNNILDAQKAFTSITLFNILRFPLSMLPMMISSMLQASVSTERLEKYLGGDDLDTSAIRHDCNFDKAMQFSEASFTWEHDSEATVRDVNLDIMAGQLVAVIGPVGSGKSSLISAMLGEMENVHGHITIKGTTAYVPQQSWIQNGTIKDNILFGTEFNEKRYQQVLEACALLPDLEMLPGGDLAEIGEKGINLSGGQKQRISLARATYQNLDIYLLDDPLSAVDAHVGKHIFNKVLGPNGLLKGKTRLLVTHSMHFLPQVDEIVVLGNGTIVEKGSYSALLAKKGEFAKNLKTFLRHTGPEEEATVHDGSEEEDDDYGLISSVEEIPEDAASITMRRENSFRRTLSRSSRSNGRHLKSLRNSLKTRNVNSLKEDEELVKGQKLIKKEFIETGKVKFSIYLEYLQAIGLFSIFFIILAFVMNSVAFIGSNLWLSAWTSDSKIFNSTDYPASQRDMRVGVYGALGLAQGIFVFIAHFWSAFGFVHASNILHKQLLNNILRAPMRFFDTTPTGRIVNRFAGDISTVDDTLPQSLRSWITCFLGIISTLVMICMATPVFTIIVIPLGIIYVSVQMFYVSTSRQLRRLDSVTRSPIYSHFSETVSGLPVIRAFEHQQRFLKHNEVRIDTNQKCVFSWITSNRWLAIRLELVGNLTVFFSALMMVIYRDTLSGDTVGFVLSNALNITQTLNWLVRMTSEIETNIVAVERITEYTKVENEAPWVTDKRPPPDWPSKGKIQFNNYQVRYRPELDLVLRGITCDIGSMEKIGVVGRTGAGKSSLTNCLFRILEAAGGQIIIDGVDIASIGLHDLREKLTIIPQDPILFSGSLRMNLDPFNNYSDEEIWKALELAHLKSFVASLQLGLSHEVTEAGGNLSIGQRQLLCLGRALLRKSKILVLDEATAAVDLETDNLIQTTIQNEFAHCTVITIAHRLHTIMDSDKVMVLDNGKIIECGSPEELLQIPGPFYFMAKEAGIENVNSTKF
structure (smiles),measurement,setting,value
COc1ccc2[nH]c([S+]([O-])Cc3ncc(C)c(OC)c3C)nc2c1 (stereo not drawn) [omeprazole],"β-estradiol glucuronidation activity, % of NC (Mean)",UGT1A1/1A3,243 % of NC
same,"4-trifluoromethyl-7-hydroxycoumarin glucuronidation activity, % of NC (Mean)",UGT1A9/2B7,145 % of NC
same,"formation of MPAG, % of NC (Mean)",UGT,110 % of NC
"COc1c(C)c2c(c(O[C@@H]3O[C@H](C(=O)O)[C@@H](O)[C@H](O)[C@H]3O)c1C/C=C(\C)CCC(=O)O)C(=O)OC2 [MPAG, 7-O-mycophenolic acid glucuronide]",uptake ratio (UR) mediated by OAT1,"human OAT1; 0.5, 1, and 10 μM",less than 2.0
same,substrate of OAT1 (in words),human OAT1; [1],not a substrate of OAT1
same,uptake ratio (UR) mediated by OAT3,OAT3; following incubation with probenecid,1.19
same,uptake ratio (UR) mediated by OAT3,OAT3; without inhibitor,2.47
same,substrate of OAT3 (in words),OAT3; [1],weak substrate for OAT3
CCc1oc2ccccc2c1C(=O)c1cc(Br)c(O)c(Br)c1 [benzbromarone],pIC50,MRP2,4.75
